Experimental findings from patent publication US11702411B2, “Pyridine, pyrazine, and triazine compounds as allosteric SHP2 inhibitors” (Revolution Medicines, Inc., priority 2017, dated 2023) are described below.

Chain of SHP2 (Q06124 whole entry): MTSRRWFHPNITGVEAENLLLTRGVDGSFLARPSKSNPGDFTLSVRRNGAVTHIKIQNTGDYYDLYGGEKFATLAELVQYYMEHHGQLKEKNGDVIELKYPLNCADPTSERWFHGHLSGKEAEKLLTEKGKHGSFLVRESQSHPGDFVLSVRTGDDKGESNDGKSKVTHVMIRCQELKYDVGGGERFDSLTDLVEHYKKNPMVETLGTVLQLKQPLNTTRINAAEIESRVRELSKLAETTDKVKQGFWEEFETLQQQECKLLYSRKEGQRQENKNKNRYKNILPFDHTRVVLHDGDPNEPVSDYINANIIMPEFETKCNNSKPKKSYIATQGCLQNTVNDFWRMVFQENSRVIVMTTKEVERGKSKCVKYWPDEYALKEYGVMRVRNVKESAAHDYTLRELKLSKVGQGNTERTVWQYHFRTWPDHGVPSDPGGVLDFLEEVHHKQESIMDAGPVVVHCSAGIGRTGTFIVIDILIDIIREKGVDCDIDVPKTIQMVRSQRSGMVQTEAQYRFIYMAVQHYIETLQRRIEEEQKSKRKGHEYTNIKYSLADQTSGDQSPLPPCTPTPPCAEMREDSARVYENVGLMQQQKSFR

The first assay addresses SHP2 (Homo sapiens (Human), UniProt Q06124). The assay can be described thus: SHP2 allosteric inhibition assay (DiFMUP prompt fluorescence, activating peptide). It counts as biochemical. Particulars: 0.2 nM SHP2, 0.5 μM activating peptide, DiFMUP substrate; read-out: SHP2 Allosteric IC50. The text has this: Without wishing to be bound by theory, SHP is allosterically activated through binding of bis-tyrosyl-phosphorylated peptides to its Src Homology 2 (SH2) domains. The latter activation step leads to the release of the auto-inhibitory interface of SHP2, which in turn renders the SHP2 protein tyrosine phosphatase (PTP) active and available for substrate recognition and reaction catalysis. The catalytic activity of SHP2 was monitored using the surrogate substrate DiFMUP in a prompt fluorescence assay format.
The phosphatase reactions were performed at room temperature in 96-well black polystyrene plate, flat bottom, non-binding surface (Corning, Cat #3650) using a final reaction volume of 100 μL and the following assay buffer conditions: 50 mM HEPES, pH 7.2, 100 mM NaCl, 0.5 mM EDTA, 0.05% P-20, 1 mM DTT.
The inhibition of SHP2 by compounds of the present disclosure (concentrations varying from 0.00005-10 μM) was monitored using an assay in which 0.2 nM of SHP2 was incubated with 0.5 μM of Activating Peptide 1 (sequence: H2N-LN(pY)IDLDLV(dPEG8)LST(pY)ASINFQK-amide) or Activating Peptide 2 (sequence: H2N-LN(pY)AQLWHA(dPEG8)LTI(pY)ATIRRF-amide). After 30-60-minutes incubation at 25° C., the surrogate substrate DiFMUP (Invitrogen, Cat #D6567) was added to the reaction and activity was determined by a kinetic read using a microplate reader (Envision, Perkin-Elmer or Spectramax M5, Molecular Devices). The excitation and emission wavelengths were 340 nm and 450 nm, respectively. Initial rates were determined from a linear fit of the data, and the inhibitor dose response curves were analyzed using normalized IC50 regression curve fitting with control based normalization.
As for `N[C@@H]1CCCC12CCN(c1ncc(-c3ccnc(Cl)c3Cl)nc1CO)CC2` [Compound 1, (3-[(1R)-1-amino-8-azaspiro[4.5]decan-8-yl]-6-(2,3-dichloropyridin-4-yl)pyrazin-2-yl)methanol], the 50% inhibitory concentration (IC50) is 50 to 500 nM.

On to `N[C@@H]1CCCC12CCN(c1ncc(-c3cccc(Cl)c3Cl)nc1CO)CC2` [Compound 2, (3-[(1R)-1-amino-8-azaspiro[4.5]decan-8-yl]-6-(2,3-dichlorophenyl)pyrazin-2-yl)methanol], for which the IC50 was 50 to 500 nM.

For the compound `CC1(N)CCN(c2ncc(-c3cccc(Cl)c3Cl)nc2CO)CC1` [Compound 3, [3-(4-amino-4-methylpiperidin-1-yl)-6-(2,3-dichlorophenyl)pyrazin-2-yl]methanol], the concentration for half-maximal inhibition (IC50) was in the range of 50 to 500 nM.

On to `CC1(N)CCN(c2ncc(Sc3ccnc(N)c3Cl)nc2CO)CC1` [Compound 4, (6-((2-amino-3-chloropyridin-4-yl)thio)-3-(4-amino-4-methylpiperidin-1-yl)pyrazin-2-yl)methanol], for which the concentration for half-maximal inhibition (IC50) was no more than 50 nM.

Take `C[C@@H]1OCC2(CCN(c3ccc(Sc4ccnc(N)c4Cl)nc3CO)CC2)[C@@H]1N` [Compound 5, [6-[(2-amino-3-chloro-4-pyridyl)sulfanyl]-3-[(3S,4S)-4-amino-3-methyl-2-oxa-8-azaspiro[4.5]decan-8-yl]-2-pyridyl]methanol]: the 50% inhibitory concentration (IC50) was no more than 50 nM.

Regarding `C[C@@H]1OCC2(CCN(c3ncc(-c4c(Cl)c(Cl)cc5c4OCO5)nc3CO)CC2)[C@@H]1N` [Compound 6, {3-[(3S,4S)-4-amino-3-methyl-2-oxa-8-azaspiro[4.5]decan-8-yl]-6-(5,6-dichloro-2H-1,3-benzodioxol-4-yl)pyrazin-2-yl}methanol], the IC50 lay within 50 to 500 nM.

As to `COc1ccc(Cl)c(Cl)c1-c1cnc(N2CCC3(CC2)CO[C@@H](C)[C@H]3N)c(CO)n1` [Compound 7, {3-[(3S,4S)-4-amino-3-methyl-2-oxa-8-azaspiro[4.5]decan-8-yl]-6-(2,3-dichloro-6-methoxyphenyl)pyrazin-2-yl}methanol], the IC50 was greater than 500 nM.

On to `C[C@@H]1OCC2(CCN(c3ncc(-c4c(O)ccc(Cl)c4Cl)nc3CO)CC2)[C@@H]1N` [Compound 8, 2-{5-[(3S,4S)-4-amino-3-methyl-2-oxa-8-azaspiro[4.5]decan-8-yl]-6-(hydroxymethyl)pyrazin-2-yl}-3,4-dichlorophenol], for which the half-inhibitory concentration (IC50) was 50 to 500 nM.

On to `C[C@@H]1OCC2(CCN(c3ncc(-c4ccc5nccnc5c4Cl)nc3CO)CC2)[C@@H]1N` [Compound 9, {3-[(3S,4S)-4-amino-3-methyl-2-oxa-8-azaspiro[4.5]decan-8-yl]-6-(5-chloroquinoxalin-6-yl)pyrazin-2-yl}methanol], for which the concentration for half-maximal inhibition (IC50) lay within 50 to 500 nM.

Consider `C[C@@H]1OCC2(CCN(c3ncc(-c4ccc5c(c4Cl)OCC5)nc3CO)CC2)[C@@H]1N` [Compound 10, {3-[(3S,4S)-4-amino-3-methyl-2-oxa-8-azaspiro[4.5]decan-8-yl]-6-(7-chloro-2,3-dihydro-1-benzofuran-6-yl)pyrazin-2-yl}methanol], for which the IC50 fell in the range of 50 to 500 nM.

Regarding `C[C@@H]1OCC2(CCN(c3ncc(-c4cccc5cc[nH]c45)nc3CO)CC2)[C@@H]1N` [Compound 11, {3-[(3S,4S)-4-amino-3-methyl-2-oxa-8-azaspiro[4.5]decan-8-yl]-6-(1H-indol-7-yl)pyrazin-2-yl}methanol], the IC50 is no more than 50 nM.

Regarding `C[C@@H]1OCC2(CCN(c3ncc(-c4ccc5nccnc5c4)nc3CO)CC2)[C@@H]1N` [Compound 12, {3-[(3S,4S)-4-amino-3-methyl-2-oxa-8-azaspiro[4.5]decan-8-yl]-6-(quinoxalin-6-yl)pyrazin-2-yl}methanol], the 50% inhibitory concentration (IC50) was greater than 500 nM.

For the compound `C[C@@H]1OCC2(CCN(c3ncc(-c4cc(Cl)c5cn[nH]c5c4)nc3CO)CC2)[C@@H]1N` [Compound 13, {3-[(3S,4S)-4-amino-3-methyl-2-oxa-8-azaspiro[4.5]decan-8-yl]-6-(4-chloro-2H-indazol-6-yl)pyrazin-2-yl}methanol], the half-maximal inhibitory concentration (IC50) fell in the range of 50 to 500 nM.

Turning to `C[C@@H]1OCC2(CCN(c3ncc(-c4cc5[nH]ncc5cc4Cl)nc3CO)CC2)[C@@H]1N` [Compound 14, {3-[(3S,4S)-4-amino-3-methyl-2-oxa-8-azaspiro[4.5]decan-8-yl]-6-(5-chloro-2H-indazol-6-yl)pyrazin-2-yl}methanol], the IC50 was 50 to 500 nM.

Turning to `C[C@@H]1OCC2(CCN(c3ncc(-c4cc5ccccc5n4C)nc3CO)CC2)[C@@H]1N` [Compound 15, {3-[(3S,4S)-4-amino-3-methyl-2-oxa-8-azaspiro[4.5]decan-8-yl]-6-(1-methyl-1H-indol-2-yl)pyrazin-2-yl}methanol], the 50% inhibitory concentration (IC50) was no more than 50 nM.

On to `C[C@@H]1OCC2(CCN(c3ncc(-c4ccc5c(c4Cl)OCCC5)nc3CO)CC2)[C@@H]1N` [Compound 16, {3-[(3S,4S)-4-amino-3-methyl-2-oxa-8-azaspiro[4.5]decan-8-yl]-6-(8-chloro-3,4-dihydro-2H-1-benzopyran-7-yl)pyrazin-2-yl}methanol], for which the IC50 lay in the range of 50 to 500 nM.

`COc1ccc(F)c(-c2cnc(N3CCC4(CC3)CO[C@@H](C)[C@H]4N)c(CO)n2)c1Cl` [Compound 17, {3-[(3S,4S)-4-amino-3-methyl-2-oxa-8-azaspiro[4.5]decan-8-yl]-6-(2-chloro-6-fluoro-3-methoxyphenyl)pyrazin-2-yl}methanol]: the IC50 is greater than 500 nM.

Consider `C[C@@H]1OCC2(CCN(c3ncc(-c4c(Cl)ccc(Cl)c4Cl)nc3CO)CC2)[C@@H]1N` [Compound 18, {3-[(3S,4S)-4-amino-3-methyl-2-oxa-8-azaspiro[4.5]decan-8-yl]-6-(2,3,6-trichlorophenyl)pyrazin-2-yl}methanol], for which the half-inhibitory concentration (IC50) is 50 to 500 nM.

Turning to `C[C@@H]1OCC2(CCN(c3ncc(-c4ccc5[nH]ncc5c4)nc3CO)CC2)[C@@H]1N` [Compound 20, {3-[(3S,4S)-4-amino-3-methyl-2-oxa-8-azaspiro[4.5]decan-8-yl]-6-(2H-indazol-5-yl)pyrazin-2-yl}methanol], the IC50 was 50 to 500 nM.

As to `C[C@@H]1OCC2(CCN(c3ncc(-c4cccc(Cl)c4Cl)nc3CO)CC2)[C@@H]1N` [Compound 21, {3-[(3S,4S)-4-amino-3-methyl-2-oxa-8-azaspiro[4.5]decan-8-yl]-6-(2,3-dichlorophenyl)pyrazin-2-yl}methanol], the 50% inhibitory concentration (IC50) is no more than 50 nM.

Consider `C[C@@H]1OCC2(CCN(c3ncc(Sc4cccc(C#N)c4Cl)nc3CO)CC2)[C@@H]1N` [Compound 22, 3-({5-[(3S,4S)-4-amino-3-methyl-2-oxa-8-azaspiro[4.5]decan-8-yl]-6-(hydroxymethyl)pyrazin-2-yl}sulfanyl)-2-chlorobenzonitrile], for which the IC50 is no more than 50 nM.

`C[C@@H]1OCC2(CCN(c3ncc(Sc4ccnc(C#N)c4Cl)nc3CO)CC2)[C@@H]1N` [Compound 23, 4-({5-[(3S,4S)-4-amino-3-methyl-2-oxa-8-azaspiro[4.5]decan-8-yl]-6-(hydroxymethyl)pyrazin-2-yl}sulfanyl)-3-chloropyridine-2-carbonitrile]: the half-maximal inhibitory concentration (IC50) is no more than 50 nM.

As to `COc1nccc(Sc2cnc(N3CCC4(CC3)CO[C@@H](C)[C@H]4N)c(CO)n2)c1Cl` [Compound 24, {3-[(3S,4S)-4-amino-3-methyl-2-oxa-8-azaspiro[4.5]decan-8-yl]-6-[(3-chloro-2-methoxypyridin-4-yl)sulfanyl]pyrazin-2-yl}methanol], the IC50 is no more than 50 nM.

Turning to `COc1cccc(Sc2cnc(N3CCC4(CC3)CO[C@@H](C)[C@H]4N)c(CO)n2)c1Cl` [Compound 25, {3-[(3S,4S)-4-amino-3-methyl-2-oxa-8-azaspiro[4.5]decan-8-yl]-6-[(2-chloro-3-methoxyphenyl)sulfanyl]pyrazin-2-yl}methanol], the IC50 was no more than 50 nM.

For the compound `C[C@@H]1OCC2(CCN(c3ncc(Sc4ccnc(N5CC(S(C)(=O)=O)C5)c4Cl)nc3CO)CC2)[C@@H]1N` [Compound 26, {3-[(3S,4S)-4-amino-3-methyl-2-oxa-8-azaspiro[4.5]decan-8-yl]-6-{[3-chloro-2-(3-methanesulfonylazetidin-1-yl)pyridin-4-yl]sulfanyl}pyrazin-2-yl}methanol], the IC50 is no more than 50 nM.

Regarding `C[C@@H]1OCC2(CCN(c3ncc(Sc4ccnc(NC5CCOCC5)c4Cl)nc3CO)CC2)[C@@H]1N` [Compound 27, {3-[(3S,4S)-4-amino-3-methyl-2-oxa-8-azaspiro[4.5]decan-8-yl]-6-({3-chloro-2-[(oxan-4-yl)amino]pyridin-4-yl}sulfanyl)pyrazin-2-yl}methanol], the half-maximal inhibitory concentration (IC50) was no more than 50 nM.

As for `C[C@@H]1OCC2(CCN(c3ncc(Sc4cccc(C(=O)N(C)C)c4Cl)nc3CO)CC2)[C@@H]1N` [Compound 28, 3-({5-[(3S,4S)-4-amino-3-methyl-2-oxa-8-azaspiro[4.5]decan-8-yl]-6-(hydroxymethyl)pyrazin-2-yl}sulfanyl)-2-chloro-N,N-dimethylbenzamide], the concentration for half-maximal inhibition (IC50) is no more than 50 nM.

The same assay, now with this note: 0.2 nM SHP2, 0.5 μM activating peptide, DiFMUP substrate; read-out: SHP2 IC50.
For `N[C@@H]1CCCC12CCN(c1ncc(-c3ccnc(Cl)c3Cl)nc1CO)CC2` [Compound 1, (3-[(1R)-1-amino-8-azaspiro[4.5]decan-8-yl]-6-(2,3-dichloropyridin-4-yl)pyrazin-2-yl)methanol], the IC50 came to 145 nM.

Regarding `N[C@@H]1CCCC12CCN(c1ncc(-c3cccc(Cl)c3Cl)nc1CO)CC2` [Compound 2, (3-[(1R)-1-amino-8-azaspiro[4.5]decan-8-yl]-6-(2,3-dichlorophenyl)pyrazin-2-yl)methanol], the IC50 is 88 nM.

For `CC1(N)CCN(c2ncc(-c3cccc(Cl)c3Cl)nc2CO)CC1` [Compound 3, [3-(4-amino-4-methylpiperidin-1-yl)-6-(2,3-dichlorophenyl)pyrazin-2-yl]methanol], the IC50 came to 461 nM.
